Here are results for six compounds from article PMC6017749, “Exploring N-acyl-4-azatetracyclo[5.3.2.0^2,6.0^8,10]dodec-11-enes as 11β-HSD1 Inhibitors” (Molecules : A Journal of Synthetic Chemistry and Natural …, 2018).

One may read the IC50 as the concentration needed to halve the response being measured. A word on the melting point: it is the temperature, or range, at which the solid turns liquid.

Data set [1] deals with T1, human 11β-HSD1 (Homo sapiens, UniProt P28845).
T1 construct: The assay uses human liver microsomes (HLM), where the enzyme is expressed; tissue Celsis In-vitro Technologies; host or cells: mixed sex human liver microsomes
In words: 11β-HSD1 enzyme inhibition assay in human liver microsomes (3H-cortisone to 3H-cortisol, SPA). In kind it is biochemical. As to conditions: human liver microsomes; for inhibition at 10 µM: relative to no inhibitor control, read-out: hHSD1 % inh at 10 µM; for IC50: read-out: hHSD1 IC50. Here is the method:
A preliminary screen was performed using a human microsome assay with compounds at 10 µM in order to assess their potential inhibition of the target enzyme (Table 2). Percentage of inhibition was determined by measuring the conversion of ^3H-cortisone to ^3H-cortisol by capturing liberated ^3H-cortisol on anti-cortisol (HyTest Ltd., Turku, Finland)-coated scintillation proximity assay beads. The assay uses human liver microsomes (HLM), where the enzyme is expressed, and NADPH as the cofactor needed by the enzyme. Eight of the thirteen new compounds presented 100% inhibition of the human 11β-HSD1 in this single concentration assay, so dose-response curves were performed to get their IC50 values.
11β-HSD1 activity was determined in mixed sex, human liver microsomes (HLM, Celsis In-vitro Technologies) by measuring the conversion of ^3H-cortisone to ^3H-cortisol. Percentage inhibition was determined relative to a no inhibitor control. An amount of 5 μg of HLM were pre-incubated at 37 °C for 15 min with inhibitor and 1 mM NADPH in a final volume of 90 μL Krebs buffer. 10 μL of 200 nM ^3H-cortisone was then added followed by incubation at 37 °C for a further 30 min. The assay was terminated by rapid freezing on dry ice and ^3H-cortisone to ^3H-cortisol conversion determined in 50 μL of the defrosted reaction by capturing liberated ^3H-cortisol on anti-cortisol (HyTest Ltd)-coated scintillation proximity assay beads (protein A-coated YSi, GE Healthcare). Reported values are the average of 1–3 measurements. A nanomolar 11β-HSD1 inhibitor, UE2316, was added as a positive control within in each set of assays.

Data set [2] addresses T1, human 11β-HSD1. In words: Cellular 11β-HSD1 enzyme inhibition assay (HEK293 stably transfected, cortisol by LC/MS). In kind it is cell-based. Particulars: for HEK hHSD1 % inh at 10 µM: HEK293 transfected with human 11β-HSD1; for inhibition at 10 µM: HEK293 transfected with human 11β-HSD1, read-out: HEK hHSD1 % inh at 10 µM. Here is the method: Those compounds with submicromolar IC50 values (4, 6, 8, 9 and 16) were further evaluated in terms of cellular potency, selectivity over 11β-HSD2, and metabolic stability as follows (Table 2, 5th, 6th, and 7th column, respectively). Cellular potency was assessed using Human Embryonic Kidney 293 (HEK293) cells stably transfected with the 11β-HSD1 gene. Cells were incubated with substrate (cortisone) and percentage of inhibition was determined by measuring the conversion of cortisone to cortisol by LC/MS. The results were in line with the previous results obtained in the microsomal assay.
The cellular 11β-HSD1 enzyme inhibition assay was performed using HEK293 cells stably transfected with the human 11β-HSD1 gene. Cells were incubated with substrate (cortisone) and product (cortisol) was determined by LC/MS. Cells were plated at 2 × 10^4 cells/well in a 96-well poly-D-lysine coated tissue culture microplate (Greiner Bio-one, Monroe, NC, USA) and incubated overnight at 37 °C in 5% CO2 […]. Compounds to be tested were solubilized in 100% dimethylsulfoxide (DMSO) at 10 mM and serially diluted in water and 10% DMSO to final concentration of 10 µM in 10% DMSO. Then 10 µL of each test dilution and 10 µL of 10% DMSO (for low and high control) were dispensed into the well of a new 96-well microplate (Greiner Bio-one). Medium was removed from the cell assay plate and 100 µL of Dulbecco’s Modified Eagle’s Medium DMEM solution (containing 1% penicillin, 1% streptomycin and 300 nM cortisone) added to each well. Cells were incubated for 2 h at 37 °C in 5% CO2 […]. Following incubation, medium was removed from each well into an Eppendorf containing 500 µL of ethyl acetate, mixed by vortex and incubated at r.t. for 5 min. A calibration curve of known concentrations of cortisol in assay medium was also set up and added to 500 µL of ethyl acetate, vortexed and incubated as above. The supernatant of each Eppendorf was removed to a 96-deep-well plate and dried down under […] at 65 °C. Each well was solubilized in 100 µL 70:30 H2O:acetonitrile (ACN) and removed to a 96-well V-bottomed plate for LC/MS analysis. Separation was carried out on a Sunfire 150 × 2.1 mm, […] column using a H2O:ACN gradient profile. Typical retention times were 2.71 min for cortisol and 2.80 min for cortisone. The peak area was calculated and the concentration of each compound determined from the calibration curve. Reported values are the average of 1–3 measurements.

In data set [3] the target is T2, human 11β-HSD2 (Homo sapiens, UniProt P80365).
T2 construct: stably transfected with the full-length gene coding for human 11β-HSD2; expressed in transfected cells; host or cells: HEK293
T2 sequence (P80365 1-405): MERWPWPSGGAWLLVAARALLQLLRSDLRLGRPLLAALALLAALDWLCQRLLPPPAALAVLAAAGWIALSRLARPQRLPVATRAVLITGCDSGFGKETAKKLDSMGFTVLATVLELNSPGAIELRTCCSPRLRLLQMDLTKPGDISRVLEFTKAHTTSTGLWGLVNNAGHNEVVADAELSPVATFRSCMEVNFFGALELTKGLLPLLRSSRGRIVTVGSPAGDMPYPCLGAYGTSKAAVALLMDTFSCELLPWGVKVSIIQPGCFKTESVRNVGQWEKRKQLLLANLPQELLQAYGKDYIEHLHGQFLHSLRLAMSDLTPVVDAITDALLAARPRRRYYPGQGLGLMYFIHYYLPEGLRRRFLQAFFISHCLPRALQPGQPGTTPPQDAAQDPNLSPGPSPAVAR
In words: Cellular 11β-HSD2 enzyme inhibition assay (HEK293 stably transfected). It counts as cell-based. As to conditions: HEK293, 10 µM, HEK293 transfected with human 11β-HSD2; read-out: HEK hHSD2 % inh at 10 µM. Here is the method: (§1) Selectivity over 11β-HSD2 was also assessed in a cell-based assay using the same methodology as before (HEK293 stably transfected with the 11β-HSD2 gene). […] Finally, metabolic stability was determined using HLM, which are widely used to predict the degree of primary metabolic clearance in the liver. Each compound was incubated over 30 min with HLM and the percentage of remaining compound after this incubation period was determined by calculating compound concentration after and before by LC/MS.
For measurement of inhibition of 11β-HSD2, HEK293 cells stably transfected with the full-length gene coding for human 11β-HSD2 were used. The protocol was the same as for the cellular 11β-HSD1 enzyme inhibition assay, only changing the substrate, this time cortisol, and the concentrations of the tested compounds, 10, 1, and 0.1 µM. Reported values are the average of 1–3 measurements.

Data set [4] can be described thus: Microsomal stability assay in human liver microsomes. Particulars: remaining compound after 30-min incubation in HLM. In kind it is in vitro ADME. Here is the method: as §1
The microsomal stability of each compound was determined using human liver microsomes (HLM, Celsis In-vitro Technologies, Baltimore, MD, USA). Microsomes were thawed and diluted to a concentration of 2 mg/mL in 50 mM sodium phosphate buffer pH 7.4. Each compound was diluted in 4 mM NADPH (made in the phosphate buffer above) to a concentration of 10 µM. Two identical incubation plates were prepared to act as a 0 min and a 30 min time point assay. 30 µL of each compound dilution was added in duplicate to the wells of a U-bottom 96-well plate and warmed at 37 °C for approximately 5 min. Verapamil, lidocaine, and propranolol at 10 µM concentration were utilized as reference compounds in this experiment. Microsomes were also pre-warmed at 37 °C before the addition of 30 µL to each well of the plate resulting in a final concentration of 1 mg/mL. The reaction was terminated at the appropriate time point (0 or 30 min) by addition of 60 µL of ice-cold 0.3 M trichloroacetic acid (TCA) per well. The plates were centrifuged for 10 min at 112× g and the supernatant fraction transferred to a fresh U-bottom 96-well plate. Plates were sealed and frozen at −20 °C prior to MS analysis. LC-MS/MS was used to quantify the peak area response of each compound before and after incubation with HLM using MS tune settings established and validated for each compound. These peak intensity measurements were used to calculate the percentage remaining after incubation with HLM for each hit compound. Reported values are the average of 1–3 measurements.
(In general: Liver microsomes are a subcellular fraction often used to study metabolism.)

In data set [5] the target is T2, human 11β-HSD2. Particulars: cited from earlier work; for IC50: read-out: HEK hHSD2 IC50.
Details of data set [6]: method as in PMID 21471376, PMID 26306982. Particulars: remaining compound after 30-min incubation in human liver microsomes; cited from earlier work.
Data set [7] addresses T1, human 11β-HSD1. On the set-up: method as in PMID 21471376, PMID 26306982. As to conditions: previous inhibitors of the group; read-out: hHSD1 IC50; cited from earlier work.
Another data set has as its system mHSD1. On the set-up: method as in PMID 21471376, PMID 26306982. As to conditions: murine enzyme; cited from earlier work.
On the set-up of data set [8]: method as in PMID 21471376, PMID 26306982. As to conditions: remaining compound in mouse liver microsomes; cited from earlier work.
The test system of data set [9] is Senescence-Accelerated Mouse Prone 8 (SAMP8). On the set-up: method as in PMID 28818766. As to conditions: 12-month-old SAMP8 mice, four weeks; cited from earlier work.
[10] abbreviates: HEK293 transfected with human 11β-HSD2.

Where two headings read alike, the source gives them in different places.

T1 sequence (P28845 whole entry): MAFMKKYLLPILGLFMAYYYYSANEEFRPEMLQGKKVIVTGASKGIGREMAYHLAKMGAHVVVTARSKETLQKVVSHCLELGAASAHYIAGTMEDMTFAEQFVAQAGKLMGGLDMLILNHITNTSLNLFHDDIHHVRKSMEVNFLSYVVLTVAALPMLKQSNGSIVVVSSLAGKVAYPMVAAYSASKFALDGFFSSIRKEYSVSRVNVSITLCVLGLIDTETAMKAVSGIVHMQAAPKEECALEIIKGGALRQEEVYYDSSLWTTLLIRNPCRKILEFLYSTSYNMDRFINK

In turn, `Nc1c(Cl)cc(C(=O)N2CC3C4C=CC(C5CC45)C3C2)cc1Cl` (stereo not shown) [Compound 8, (4-Amino-3,5-dichlorophenyl)(4-azatetracyclo[5.3.2. 0^2,6.0^8,10]dodec-11-en-4-yl)methanone] gave a melting point of 186 to 187 °C. Moreover, on human 11β-HSD1 [1], the inhibition at 10 µM worked out at 100% and the concentration for half-maximal inhibition (IC50) turned out to be 45 nM. Also, on human 11β-HSD1 [2], the “HEK hHSD1 % inh at 10 µM” value was “complete inhibition” and the inhibition at 10 µM was determined as 100%. Moreover, the inhibition at 10 µM at human 11β-HSD2 [3] worked out at 86%. The “HLM % Parent” value in data set [4] was 13%.

For `O=C(c1ccccc1)N1CC2C3C=CC(C4CC34)C2C1` (stereo not shown) [Compound 4, (4-Azatetracyclo[5.3.2.0^2,6.0^8,10]dodec-11-en-4-yl)(phenyl)methanone], the melting point lay within 65 to 66 °C. In addition, at human 11β-HSD1 [1], the inhibition at 10 µM stood at 100% and the half-inhibitory concentration (IC50) stood at 546 nM. Further, on human 11β-HSD1 [2], the inhibition at 10 µM was 77%. At human 11β-HSD2 [3], the inhibition at 10 µM stood at 84%. Besides, the “HLM % Parent” value in data set [4] was 85%.

`O=C(C1CC=CCC1)N1CC2C3C=CC(C4CC34)C2C1` (stereo not shown) [Compound 9, (4-Azatetracyclo[5.3.2. 0^2,6.0^8,10]dodec-11-en-4-yl)(cyclohex-3-en-1-yl)methanone] gave a melting point of 78 to 79 °C. In addition, on human 11β-HSD1 [1], the inhibition at 10 µM was 100% and the half-inhibitory concentration (IC50) was found to be 56 nM. Moreover, at human 11β-HSD1 [2], the “HEK hHSD1 % inh at 10 µM” value was “complete inhibition” and the inhibition at 10 µM stood at 100%. Besides, the inhibition at 10 µM at human 11β-HSD2 [3] amounted to 87%. Also, in [4], the “HLM % Parent” value was 44%.

Turning to `O=C(NC1C2CC3CC(C2)CC1C3)C1CCCCC1` (stereo not shown) [Compound 1], the “HEK hHSD2 % inh 10 µM” value at human 11β-HSD2 [5] (10 µM, HEK293 transfected with human 11β-HSD2) is reported as 88%. Besides, in data set [6], the “HLM % Parent” value is 74%.

As to `O=C(C1CCCCC1)N1CC2C3C=CC(C4CC34)C2C1` (stereo not shown) [Compound 2], the values for the inhibition at 10 µM at human 11β-HSD1 [1], on human 11β-HSD1 [2] and at human 11β-HSD2 [3] were 100%, 100% and 69%, respectively. For the same compound, the half-maximal inhibitory concentration (IC50) at human 11β-HSD1 [1] was 19 nM; at human 11β-HSD2 [5] (setting [10]), 1000 to 10000 nM. In addition, the “HLM % Parent” value in [4] and in [6] was 27% each time. Also, the “selectivity index against 11β-HSD2 isoform” value at human 11β-HSD2 [5] (11β-HSD2 versus 11β-HSD1) is given as “at least 50 fold”.

Regarding `O=C(C1CCCCC1)N1CC2C3CCC(C4CC34)C2C1` (stereo not shown) [Compound 3], the IC50 on human 11β-HSD1 [7] was 29 nM; on human 11β-HSD2 [5] (setting [10]), 100 to 1000 nM; in the data set on mHSD1, 81 nM. The “HLM % Parent” value in data set [6] is reported as 94%. Also, the “MLM % Parent” value in data set [8] is 93%. Moreover, the “effect on memory deficits” value in [9] was “prevented memory deficits”. In addition, the neuroprotective action entry in data set [9] is “displayed a neuroprotective action through reduction of neuroinflammation and oxidative stress”.
